Assay results: patent US20160137639A1, “TRIAZOLE-ISOXAZOLE COMPOUND AND MEDICAL USE THEREOF” (JAPAN TOBACCO INC., priority 2012, published 2016)
Where two headings read alike, the source gives them in different places.

Assays:
human RORγ = target: T1, human RORγ (Homo sapiens, UniProt P51449); test: Luciferase reporter gene assay of inhibitory effect against RORγ transcriptional activity (GAL4-hRORγ plasmid in CHO cells); format: cell-based
T1 construct: human, NM_005060.3 and from Ser253 to Lys518; expressed in transfected cells; host or cells: CHO cells (transient co-transfection with pG5-Luc reporter)
T1 sequence (P51449 253-518): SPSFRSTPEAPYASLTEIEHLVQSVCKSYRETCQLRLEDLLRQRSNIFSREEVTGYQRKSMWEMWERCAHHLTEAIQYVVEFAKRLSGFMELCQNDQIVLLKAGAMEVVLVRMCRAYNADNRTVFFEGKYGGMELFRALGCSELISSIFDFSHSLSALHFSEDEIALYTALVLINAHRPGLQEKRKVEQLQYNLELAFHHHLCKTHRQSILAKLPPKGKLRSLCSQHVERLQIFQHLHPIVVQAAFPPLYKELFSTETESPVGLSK

mouse RORγ = target: T2, mouse RORγ (Mus musculus, UniProt P51450); test: Luciferase reporter gene assay of inhibitory effect against RORγ transcriptional activity (GAL4-mRORγ plasmid in CHO cells); format: cell-based
T2 construct: mouse, NM_011281.2 and from Ile251 to Lys516; expressed in transfected cells; host or cells: CHO cells (transient co-transfection with pG5-Luc reporter)
T2 sequence (P51450 251-516): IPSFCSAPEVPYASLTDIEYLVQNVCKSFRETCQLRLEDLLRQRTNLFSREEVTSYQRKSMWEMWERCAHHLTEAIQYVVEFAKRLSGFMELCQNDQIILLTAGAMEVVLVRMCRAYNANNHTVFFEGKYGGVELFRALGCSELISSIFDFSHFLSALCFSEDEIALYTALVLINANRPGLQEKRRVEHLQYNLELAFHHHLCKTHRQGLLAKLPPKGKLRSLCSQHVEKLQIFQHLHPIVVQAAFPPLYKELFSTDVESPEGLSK
Summary of the method: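 CHO cells transiently co-transfected with GAL4-mouse RORγ LBD (Ile251–Lys516) and GAL4-dependent luciferase reporter; eight compound concentrations, 0.1% DMSO, 2 days at 37 °C. Luminescence as %-of-vehicle control; EC50 by curve fit, cytotoxic concentrations excluded.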

| Structure (SMILES) | EC50 (human RORγ; read-out: LUC EC50 hRORg) | EC50 (mouse RORγ; read-out: LUC EC50 mRORg) | EC50 (human RORγ; read-out: LUC EC50 (μM) hRORg) | EC50 (mouse RORγ; read-out: LUC EC50 (μM) mRORg) |
| --- | --- | --- | --- | --- |
| Cc1ccc(NC(=O)[C@H]2CN(CC(=O)N(C)C)C[C@@H]2c2nnc([C@H]3C[C@@H](CC(C)(C)C)C3)n2C2CC2)c(C)c1 [Example F-652] | < 3 µM | < 3 µM | – | – |
| Cc1ccc(NC(=O)CCc2noc(C3(CC(=O)O)CC(CC(C)(C)C)C3)c2C2CC2)c(Cl)c1 (mixture of isomers) [Example F-743] | > 3 µM | > 3 µM | – | – |
| Cc1cc(Cl)ccc1NC(=O)C[C@H](CCO)c1nnc(-c2cc(CC(C)C)on2)n1C1CC1 [Example F-660] | < 3 µM | < 3 µM | – | – |
| CC(C)CCc1nnc(CCC(=O)Nc2cccc(Cl)c2F)n1C1CC1 [Example F-100] | – | – | > 3 µM | > 3 µM |
| CC(C)CCc1nnc(CCC(=O)NCc2ccc(Cl)cc2)n1C1CC1 [Example F-122] | – | – | > 3 µM | > 3 µM |
| CC(C)(C)Cc1cc(-c2onc([C@@H](CCC(=O)O)CC(=O)Nc3ccc(Cl)cc3F)c2C2CC2)no1 [Example E-56] | – | – | < 3 µM | < 3 µM |
| Cc1ccc(NC(=O)C[C@H](CCC(=O)O)c2nnc([C@H]3C[C@@H](CC(C)(C)C(C)C)C3)n2C2CC2(F)F)c(Cl)c1 (mixture of isomers) [Example F-714] | < 3 µM | < 3 µM | – | – |
| Cc1ccc(NC(=O)[C@@H](CC(=O)O)Cc2noc([C@H]3C[C@@H](CC(C)(C)C)C3)c2C2CC2)c(Cl)c1 [Example F-677] | < 3 µM | < 3 µM | – | – |
| COc1cc(C)c(C)cc1CNC(=O)CCc1nnc(CCC(C)C)n1C1CC1 [Example F-205] | – | – | > 3 µM | > 3 µM |
| Cc1ccc(NCc2nnc(CCC(=O)Nc3cccc(Cl)c3C)n2C2CC2)c(C)c1 [Example F-206] | – | – | < 3 µM | < 3 µM |
| Cc1ccc(NC(=O)C[C@H](CCO)c2nnc(CCCC(C)(C)C)n2C2CC2)c(C)c1 [Example F-327] | – | – | < 3 µM | < 3 µM |
| Cc1ccc(NC(=O)[C@H]2CN(C)C(=O)[C@@H]2c2nnc(CCCC(C)(C)C)n2C2CC2)c(C)c1 [Example F-303] | – | – | < 3 µM | < 3 µM |
| CC(C)CCc1nnc(CCC(=O)Nc2cnc3ccccn23)n1C1CC1 [Example F-134] | – | – | > 3 µM | > 3 µM |
| Cc1ccc(NC(=O)C[C@H](CCOCc2ccccc2)c2nnc([C@H]3C[C@@H](CC(C)C)C3)n2C2CC2)c(C)c1 [Example F-456] | – | – | < 3 µM | < 3 µM |
| CCCOc1ccc(-c2nnc(CCC(=O)Nc3ccc(C)cc3C)n2C2CC2)cc1 [Example F-463] | – | – | > 3 µM | < 3 µM |
| Cc1ccc(NC(=O)[C@H]2CN(CC(F)(F)F)C[C@@H]2c2nnc([C@H]3C[C@@H](CC(C)(C)C)C3)n2C2CC2)c(C)c1 [Example F-541] | < 3 µM | < 3 µM | – | – |
| Cc1ccc(NC(=O)CC(CC(=O)N2CCCC2)c2nnc([C@H]3C[C@@H](CC(C)C)C3)n2C2CC2)c(C)c1 (mixture of isomers) [Example F-501] | < 3 µM | < 3 µM | – | – |
| CC(C)CCc1nnc(CCC(=O)Nc2ccccc2)n1C1CC1 [Example F-56] | – | – | > 3 µM | > 3 µM |
| Cc1ccc(NC(=O)C[C@H](CCC(=O)O)c2onc(-c3cc(CC(C)(C)C)on3)c2C2CC2)c(Cl)c1 [Example E-75] | – | – | < 3 µM | < 3 µM |
| CC(=O)N1C[C@H](C(=O)Nc2ccc(C)cc2C)[C@@H](c2nnc(C3CN(S(=O)(=O)C(C)C)C3)n2C2CC2)C1 (racemic) [Example F-418] | – | – | > 3 µM | > 3 µM |
| CC(C)(C)C[C@H]1C[C@@H](c2onc(CCC(=O)Nc3ccc(Cl)cc3Cl)c2C2CC2)C1 [Example F-720] | < 3 µM | < 3 µM | – | – |
| CC(=O)N1C[C@H](C(=O)Nc2ccc(C)cc2C)[C@@H](c2nnc(CCC3CCCCC3)n2C2CC2)C1 (racemic) [Example F-191] | – | – | < 3 µM | < 3 µM |

| Structure (SMILES) | EC50 (human RORγ; read-out: LUC EC50 hRORg) | EC50 (mouse RORγ; read-out: LUC EC50 mRORg) | EC50 (human RORγ; read-out: LUC EC50 (μM) hRORg) | EC50 (mouse RORγ; read-out: LUC EC50 (μM) mRORg) |
| --- | --- | --- | --- | --- |
| Cc1cc(C)cc(NC(=O)CCc2nnc(CCC(C)C)n2C2CC2)c1 [Example F-76] | – | – | > 3 µM | > 3 µM |
| Cc1ccc(NC(=O)C[C@H](CCC(=O)O)c2noc(-c3noc(CCC(C)C)c3Cl)c2C2CC2)c(Cl)c1 [Example E-10] | – | – | < 3 µM | < 3 µM |
| Cc1ccc(NC(=O)C[C@H](CCC(=O)O)c2noc(-c3cc(CCC(C)C)on3)c2C(F)(F)F)c(F)c1 [Example E-13] | – | – | > 3 µM | < 3 µM |
| Cc1ccc(NC(=O)C[C@@H](c2nnc(CCCC(C)(C)C)n2C2CC2)N(C)C(=O)OCc2ccccc2)c(C)c1 [Example F-352] | – | – | > 3 µM | > 3 µM |
| CC(=O)N1C[C@@H](C(=O)Nc2ccc(C)cc2C)[C@H](c2nnc(CCCC(C)C)n2C2CC2)C1 [Example F-316] | – | – | > 3 µM | > 3 µM |
| Cc1ccc(NC(=O)CC(CN)c2nnc(CCCC(C)C)n2C2CC2)c(C)c1 (racemic) [Example F-274] | – | – | > 3 µM | > 3 µM |
| Cc1ccccc1NC(=O)CCc1nnc(CCC(C)C)n1C1CC1 [Example F-64] | – | – | > 3 µM | > 3 µM |
| Cc1c(Cl)cccc1NC(=O)CC(CCCO)c1nnc(CCC(C)C)n1C1CC1 (racemic) [Example F-196] | – | – | < 3 µM | < 3 µM |
| CC(C)CCc1nnc(CCC(=O)NCc2cccc3cn[nH]c23)n1C1CC1 [Example F-150] | – | – | > 3 µM | > 3 µM |
| Cc1ccc(NC(=O)CC(CC(=O)N2CC[C@@H](O)C2)c2nnc([C@H]3C[C@@H](CC(C)C)C3)n2C2CC2)c(C)c1 (mixture of isomers) [Example F-502] | > 3 µM | > 3 µM | – | – |
| Cc1ccc(NC(=O)CC(Cc2nc(=O)o[nH]2)c2nnc([C@H]3C[C@@H](CC(C)C)C3)n2C2CC2)c(C)c1 (mixture of isomers) [Example F-472] | – | – | < 3 µM | < 3 µM |
| COc1cc(C)ccc1CNC(=O)CCc1nnc(CC[C@H]2CC[C@H](C)CC2)n1C1CC1 [Example F-241] | – | – | < 3 µM | < 3 µM |
| Cc1ccc(NC(=O)C[C@H](CCC(=O)O)c2onc(-c3cc(C(F)(F)C(C)(C)C)on3)c2C2CC2)c(Cl)c1 [Example E-52, Sodium (S)-5-(2-chloro-4-methyl-phenylcarbamoyl)-4-[4-cyclopropyl-5′-(1,1-difluoro-2,2-dimethylpropyl)-[3,3′]biisoxazolyl-5′-yl]pentanoate] | – | – | < 3 µM | < 3 µM |
| CC(=O)N1C[C@H](C(=O)Nc2ccc(C)cc2C)[C@@H](c2nnc(-c3cnn(C(C)C)c3)n2C2CC2)C1 (racemic) [Example F-368] | – | – | > 3 µM | > 3 µM |
| CC(C)CCc1nnc(CCC(=O)N[C@@H](C)c2ccccc2)n1C1CC1 [Example F-62] | – | – | > 3 µM | > 3 µM |
| Cc1cc(Cl)ccc1NC(=O)C[C@H](CCO)c1nnc(-c2cc(CCC(C)C)on2)n1C1CC1 [Example F-616] | < 3 µM | < 3 µM | – | – |
| Cc1ccc(NC(=O)CCc2nnc(COC(C)(C)C)n2C2CC2)c(C)c1 [Example F-97] | – | – | > 3 µM | > 3 µM |
| Cc1ccc(NC(=O)CC(Cc2cc(O)no2)c2nnc([C@H]3C[C@@H](CC(C)C)C3)n2C2CC2)c(C)c1 (mixture of isomers) [Example F-450] | – | – | < 3 µM | < 3 µM |
| CC(C)Cc1cc(-c2nnc([C@H](CC(=O)Nc3cccc4c3OC(F)(F)O4)OC(C)C)n2C2CC2)no1 [Example F-584] | > 3 µM | < 3 µM | – | – |
| CCC(C)(C)C[C@H]1C[C@@H](c2onc([C@@H](CCC(=O)O)CC(=O)Nc3ccc(C)nc3C)c2C2CC2)C1 [Example F-692] | < 3 µM | < 3 µM | – | – |
| Cc1ccc(NC(=O)CCc2nnc(CCC(C)C)n2C2CC2)c(C)c1 [Example F-79] | – | – | > 3 µM | > 3 µM |
